From patent US12428420B2, “Tricyclic heterocycles as FGFR inhibitors” (Incyte Corporation, priority 2021, dated 2025)
pIC50: −log10 of the molar value.

Columns and labels:
[1] = target: wild-type un-phosphorylated FGFR3 protein (Homo sapiens, UniProt P22607); assay: FGFR Enzymatic Assay (FRET peptide phosphorylation); assay type: biochemical; conditions: pre-incubated for 4 hours
Description: The inhibitor potency of the exemplified compounds was determined in an enzyme discontinuous assay that measures peptide phosphorylation using FRET measurements to detect product formation. Inhibitors were serially diluted in DMSO and a volume of 0.2 μL was transferred to the wells of a 384-well plate. A 5 μL/well volume of enzyme isoforms of FGFR (-1, -2, -3 wild-type and mutant isoforms, -4) including phosphorylated and un-phosphorylated proteins diluted in assay buffer (50 mM HEPES, 10 mM MgCl2, 1 mM EGTA, 0.01% Tween-20, 5 mM DTT, pH 7.5) was added to the plate and pre-incubated with inhibitor for 5 to 15 minutes at ambient temperature. Appropriate controls (enzyme blank and enzyme with no inhibitor) were included on the plate. The reaction was initiated by the addition of a 5 μL/well volume containing both biotinylated [sequence] peptide substrate (SEQ ID NO: 1) and ATP in assay buffer. The 10 μL/well reaction concentration of the peptide substrate was 500 nM whereas the ATP concentration was maintained near or below the ATP Km. The ATP Km values were pre-determined in a separate series of experiments. The reaction plate was incubated at 25° C. for 1 hr and the reactions were ended with the addition of 5 μL/well of quench solution (50 mM Tris, 150 mM NaCl, 0.5 mg/mL BSA, pH 7.8; 45 mM EDTA, 600 nM staurosporin, with Perkin Elmer Lance Reagents at 3.75 nM Eu-antibody PY20 and 180 nM APC-Streptavidin). The plate was allowed to equilibrate for ˜10 minutes at ambient temperature before scanning on a PheraStar plate reader (BMG Labtech) instrument.
Either GraphPad prism or XLfit was used to analyze the data. The IC50 values were derived by fitting the data to a four parameter logistic equation producing a sigmoidal dose-response curve with a variable Hill coefficient. Prism equation: Y=Bottom+(Top−Bottom)/(1+10^((Log IC50−X)*Hill slope)); XLfit equation: Y=(A+((B−A)/(1+((X/C)^D)))) where X is the logarithm of inhibitor concentration and Y is the response.

[2] = tested on: RT-112/84 cell line; assay: Luminescent Viability Assay (CellTiter-Glo); assay type: cell-based; conditions: RT-112/84 cell line (bladder, FGFR3-TACC3), 3 days
Description: RT112 cells (cell lines and genetic profiles further detailed in Table 2) were purchased from ATCC (Manassas, VA) and maintained in RPMI, 10% FBS (Gibco/Life Technologies). To measure the effect of test compounds on the viability of cells, the cells were plated with RPMI 10% FBS (5×10^3 cells/well/in 50 μL) into black 96-well Greiner polystyrene in the presence or absence of 50 μL of a concentration range of test compounds. After 3 days, 100 μL of CellTiter-Glo Reagent (Promega) was added. Luminescence was read with a TopCount (PerkinElmer). IC50 determination was performed by fitting the curve of percent inhibition versus the log of the inhibitor concentration using the GraphPad Prism 5.0 software.

Sequence of wild-type un-phosphorylated FGFR3 protein (P22607 23-806): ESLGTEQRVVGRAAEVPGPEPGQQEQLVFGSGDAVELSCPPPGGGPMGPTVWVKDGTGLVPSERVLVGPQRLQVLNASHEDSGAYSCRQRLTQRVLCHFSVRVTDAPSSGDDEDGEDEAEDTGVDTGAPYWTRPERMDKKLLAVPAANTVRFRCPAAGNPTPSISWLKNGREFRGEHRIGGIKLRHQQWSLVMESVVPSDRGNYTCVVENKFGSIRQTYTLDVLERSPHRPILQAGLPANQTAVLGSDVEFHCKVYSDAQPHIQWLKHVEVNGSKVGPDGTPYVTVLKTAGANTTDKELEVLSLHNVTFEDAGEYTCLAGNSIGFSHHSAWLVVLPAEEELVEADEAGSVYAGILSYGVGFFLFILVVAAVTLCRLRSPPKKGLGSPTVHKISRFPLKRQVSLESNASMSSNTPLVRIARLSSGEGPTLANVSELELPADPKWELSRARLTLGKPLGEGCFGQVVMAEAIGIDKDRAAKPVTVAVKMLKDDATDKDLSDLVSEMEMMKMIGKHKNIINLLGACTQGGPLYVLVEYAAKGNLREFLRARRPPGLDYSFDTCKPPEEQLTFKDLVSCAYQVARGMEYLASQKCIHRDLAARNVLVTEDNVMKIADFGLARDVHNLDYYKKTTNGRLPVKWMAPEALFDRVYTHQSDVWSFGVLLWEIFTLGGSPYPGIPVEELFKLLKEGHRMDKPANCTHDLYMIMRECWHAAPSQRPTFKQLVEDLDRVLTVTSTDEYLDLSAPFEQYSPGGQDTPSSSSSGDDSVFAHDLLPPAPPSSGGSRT

## CC(C#N)n1cc(-c2cnc3ccn4c(CO)c(-c5c(Cl)cccc5Cl)nc4c3c2)cn1 (single isomer, unassigned) [17 peak 1]
[1]
  pIC50: > 9.00
[2]; Homo sapiens, RT112/84, 72 h
  pIC50: > 8.00

## CC(C#N)n1cc(-c2cnc3ccn4c(CO)c(-c5c(Cl)cccc5Cl)nc4c3c2)cn1 (single isomer, unassigned) [17 peak 2]
[1]
  pIC50: > 9.00
[2]
  pIC50: > 8.00

## CC(O)Cn1cc(-c2cnc3ccn4c(CO)c(-c5c(Cl)cccc5Cl)nc4c3c2)cn1 (single isomer, unassigned) [18 peak 1]
[1]
  pIC50: 8.30 to 9.00
[2]; Homo sapiens, RT112/84, 72 h
  pIC50: 7.30 to 8.00

## CC(O)Cn1cc(-c2cnc3ccn4c(CO)c(-c5c(Cl)cccc5Cl)nc4c3c2)cn1 (single isomer, unassigned) [18 peak 2]
[1]
  pIC50: 8.30 to 9.00
[2]
  pIC50: 7.30 to 8.00

## CC(CC#N)n1cc(-c2cnc3ccn4c(CO)c(-c5c(Cl)cccc5Cl)nc4c3c2)cn1 (single isomer, unassigned) [23 peak 1]
[1]
  pIC50: > 9.00
[2]; Homo sapiens, RT112/84, 72 h
  pIC50: 7.30 to 8.00

## CC(CC#N)n1cc(-c2cnc3ccn4c(CO)c(-c5c(Cl)cccc5Cl)nc4c3c2)cn1 (single isomer, unassigned) [23 peak 2]
[1]
  pIC50: > 9.00
[2]
  pIC50: 7.30 to 8.00

## O=S1(=O)CCCC(n2cc(-c3cnc4ccn5c(CO)c(-c6c(Cl)cccc6Cl)nc5c4c3)cn2)C1 (single isomer, unassigned) [26 peak 1]
[1]
  pIC50: 8.30 to 9.00
[2]; Homo sapiens, RT112/84, 72 h
  pIC50: 7.30 to 8.00

## O=S1(=O)CCCC(n2cc(-c3cnc4ccn5c(CO)c(-c6c(Cl)cccc6Cl)nc5c4c3)cn2)C1 (single isomer, unassigned) [26 peak 2]
[1]
  pIC50: > 9.00
[2]
  pIC50: > 8.00

## OCc1c(-c2c(Cl)cccc2Cl)nc2c3cc(-c4cnn(Cc5ccncn5)c4)cnc3ccn12 [Example 1, (2-(2,6-Dichlorophenyl)-9-(1-(pyrimidin-4-ylmethyl)-1H-pyrazol-4-yl)imidazo[2,1-J][1,6]naphthyridin-3-yl)methanol]
[1]
  pIC50: 8.30 to 9.00
[2]; Homo sapiens, RT112/84, 72 h
  pIC50: 7.30 to 8.00

## N#Cc1cncc(Cn2cc(-c3cnc4ccn5c(CO)c(-c6c(Cl)cccc6Cl)nc5c4c3)cn2)c1 [Example 2, 5-((4-(2-(2,6-Dichlorophenyl)-3-(hydroxymethyl)imidazo[2,1-f][1,6]naphthyridin-9-yl)-1H-pyrazol-1-yl)methyl)nicotinonitrile]
[1]
  pIC50: > 9.00
[2]; Homo sapiens, RT112/84, 72 h
  pIC50: 7.30 to 8.00

## N#Cc1ccc(Cn2cc(-c3cnc4ccn5c(CO)c(-c6c(Cl)cccc6Cl)nc5c4c3)cn2)cn1 [Example 3, 5-((4-(2-(2,6-Dichlorophenyl)-3-(hydroxymethyl)imidazo[2,1-f][1,6]naphthyridin-9-yl)-1H-pyrazol-1-yl)methyl)picolinonitrile]
[1]
  pIC50: > 9.00
[2]; Homo sapiens, RT112/84, 72 h
  pIC50: > 8.00

## N#Cc1cc(Cn2cc(-c3cnc4ccn5c(CO)c(-c6c(Cl)cccc6Cl)nc5c4c3)cn2)ccn1 [Example 4, 4-((4-(2-(2,6-Dichlorophenyl)-3-(hydroxymethyl)imidazo[2,1-f][1,6]naphthyridin-9-yl)-1H-pyrazol-1-yl)methyl)picolinonitrile]
[1]
  pIC50: > 9.00
[2]; Homo sapiens, RT112/84, 72 h
  pIC50: > 8.00

## OCc1c(-c2c(Cl)cccc2Cl)nc2c3cc(-c4cnn(Cc5ccnc(C(F)(F)F)c5)c4)cnc3ccn12 [Example 5, (2-(2,6-Dichlorophenyl)-9-(1-((2-(trifluoromethyl)pyridin-4-yl)methyl)-1H-pyrazol-4-yl)imidazo[2,1-f][1,6]naphthyridin-3-yl)methanol]
[1]
  pIC50: 8.30 to 9.00
[2]; Homo sapiens, RT112/84, 72 h
  pIC50: > 8.00

## O=C(c1ccc(-c2cnc3ccn4c(CO)c(-c5c(Cl)cccc5Cl)nc4c3c2)cc1)N1CCOCC1 [Example 6, (4-(2-(2,6-Dichlorophenyl)-3-(hydroxymethyl)imidazo[2,1-f][1,6]naphthyridin-9-yl)phenyl)(morpholino)methanone]
[1]
  pIC50: 8.30 to 9.00
[2]; Homo sapiens, RT112/84, 72 h
  pIC50: 7.30 to 8.00

## O=C(c1ccc(-c2cnc3ccn4c(CO)c(-c5c(Cl)cccc5Cl)nc4c3c2)cc1)N1C[C@@H]2C[C@H]1CO2 [Example 7, ((1S,4S)-2-Oxa-5-azabicyclo[2.2.1]heptan-5-yl)(4-(2-(2,6-dichlorophenyl)-3-(hydroxymethyl)imidazo[2,1-f][1,6]naphthyridin-9-yl)phenyl)methanone]
[1]
  pIC50: 8.30 to 9.00
[2]; Homo sapiens, RT112/84, 72 h
  pIC50: 7.30 to 8.00

## O=C(CO)N1CCN(Cc2ccc(-c3cnc4ccn5c(CO)c(-c6c(Cl)cccc6Cl)nc5c4c3)cc2)CC1 [Example 8, 1-(4-(4-(2-(2,6-Dichlorophenyl)-3-(hydroxymethyl)imidazo[2,1-f][1,6]naphthyridin-9-yl)benzyl)piperazin-1-yl)-2-hydroxyethan-1-one]
[1]
  pIC50: 8.30 to 9.00
[2]; Homo sapiens, RT112/84, 72 h
  pIC50: 7.30 to 8.00

## CC(=O)N1CCN(Cc2ccc(-c3cnc4ccn5c(CO)c(-c6c(Cl)cccc6Cl)nc5c4c3)cc2)CC1 [Example 9, 1-(4-(4-(2-(2,6-Dichlorophenyl)-3-(hydroxymethyl)imidazo[2,1-f][1,6]naphthyridin-9-yl)benzyl)piperazin-1-yl)ethan-1-one]
[1]
  pIC50: 8.30 to 9.00
[2]; Homo sapiens, RT112/84, 72 h
  pIC50: 7.30 to 8.00

## O=C(CO)N1CCN(c2ccc(-c3cnc4ccn5c(CO)c(-c6c(Cl)cccc6Cl)nc5c4c3)cc2)CC1 [Example 10, 1-(4-(4-(2-(2,6-Dichlorophenyl)-3-(hydroxymethyl)imidazo[2,1-f][1,6]naphthyridin-9-yl)phenyl)piperazin-1-yl)-2-hydroxyethan-1-one]
[1]
  pIC50: 8.30 to 9.00
[2]; Homo sapiens, RT112/84, 72 h
  pIC50: 7.30 to 8.00

## Cc1cccc(Cl)c1-c1nc2c3cc(-c4cnn(C5CCN(C)CC5)c4)cnc3ccn2c1CO [Example 11, (2-(2-Chloro-6-methylphenyl)-9-(1-(1-methylpiperidin-4-yl)-1H-pyrazol-4-yl)imidazo[2,1-J][1,6]naphthyridin-3-yl)methanol]
[1]
  pIC50: 8.30 to 9.00
[2]; Homo sapiens, RT112/84, 72 h
  pIC50: 7.30 to 8.00

## CN(C)C(=O)c1ccc(Cn2cc(-c3cnc4ccn5c(CO)c(-c6c(Cl)cccc6Cl)nc5c4c3)cn2)cn1 [Example 12, 5-((4-(2-(2,6-Dichlorophenyl)-3-(hydroxymethyl)imidazo[2,1-f][1,6]naphthyridin-9-yl)-1H-pyrazol-1-yl)methyl)-N,N-dimethylpicolinamide]
[1]
  pIC50: > 9.00
[2]; Homo sapiens, RT112/84, 72 h
  pIC50: > 8.00

## Cc1c(-c2c(Cl)cccc2Cl)nc2c3cc(-c4cnn(C5CN(C(=O)c6cn(C)nn6)C5)c4)cnc3ccn12 [Example 13, (3-(4-(2-(2,6-Dichlorophenyl)-3-methylimidazo[2,1-J][1,6]naphthyridin-9-yl)-1H-pyrazol-1-yl)azetidin-1-yl)(1-methyl-1H-1,2,3-triazol-4-yl)methanone]
[1]
  pIC50: 8.30 to 9.00
[2]; Homo sapiens, RT112/84, 72 h
  pIC50: 7.30 to 8.00

## Cc1c(-c2c(Cl)cccc2Cl)nc2c3cc(-c4cnn(C5CN(C(=O)c6nnn(C)n6)C5)c4)cnc3ccn12 [Example 14, (3-(4-(2-(2,6-Dichlorophenyl)-3-methylimidazo[2,1-J][1,6]naphthyridin-9-yl)-1H-pyrazol-1-yl)azetidin-1-yl)(2-methyl-2H-tetrazol-5-yl)methanone]
[1]
  pIC50: 8.30 to 9.00
[2]; Homo sapiens, RT112/84, 72 h
  pIC50: 7.30 to 8.00

## CCn1cc(-c2cnc3ccn4c(CO)c(-c5c(Cl)cccc5Cl)nc4c3c2)cn1 [Example 15, (2-(2,6-Dichlorophenyl)-9-(1-ethyl-1H-pyrazol-4-yl)imidazo[2,1-f][1,6]naphthyridin-3-yl)methanol]
[1]
  pIC50: 8.30 to 9.00
[2]; Homo sapiens, RT112/84, 72 h
  pIC50: > 8.00

## CC(C)(C#N)n1cc(-c2cnc3ccn4c(CO)c(-c5c(Cl)cccc5Cl)nc4c3c2)cn1 [Example 16, 2-(4-(2-(2,6-Dichlorophenyl)-3-(hydroxymethyl)imidazo[2,1-f][1,6]naphthyridin-9-yl)-1H-pyrazol-1-yl)-2-methylpropanenitrile]
[1]
  pIC50: 8.30 to 9.00
[2]; Homo sapiens, RT112/84, 72 h
  pIC50: 7.30 to 8.00

## CN(C)C(=O)Cn1cc(-c2cnc3ccn4c(CO)c(-c5c(Cl)cccc5Cl)nc4c3c2)cn1 [Example 19, 2-(4-(2-(2,6-Dichlorophenyl)-3-(hydroxymethyl)imidazo[2,1-f][1,6]naphthyridin-9-yl)-1H-pyrazol-1-yl)-N,N-dimethylacetamide]
[1]
  pIC50: 8.30 to 9.00
[2]; Homo sapiens, RT112/84, 72 h
  pIC50: 7.30 to 8.00

## CC(=O)N1CCC(n2cc(-c3cnc4ccn5c(CO)c(-c6c(Cl)cccc6Cl)nc5c4c3)cn2)CC1 [Example 20, 1-(4-(4-(2-(2,6-Dichlorophenyl)-3-(hydroxymethyl)imidazo[2,1-f][1,6]naphthyridin-9-yl)-1H-pyrazol-1-yl)piperidin-1-yl)ethan-1-one]
[1]
  pIC50: > 9.00
[2]; Homo sapiens, RT112/84, 72 h
  pIC50: > 8.00

## COCC(=O)N1CCC(n2cc(-c3cnc4ccn5c(CO)c(-c6c(C)cccc6Cl)nc5c4c3)cn2)CC1 [Example 21, 1-(4-(4-(2-(2-Chloro-6-methylphenyl)-3-(hydroxymethyl)imidazo[2,1-f][1,6]naphthyridin-9-yl)-1H-pyrazol-1-yl)piperidin-1-yl)-2-methoxyethan-1-one]
[1]
  pIC50: 8.30 to 9.00
[2]; Homo sapiens, RT112/84, 72 h
  pIC50: > 8.00

## Cc1cccc(Cl)c1-c1nc2c3cc(-c4cnn(CC(C)(C)O)c4)cnc3ccn2c1CO [Example 22, 1-(4-(2-(2-Chloro-6-methylphenyl)-3-(hydroxymethyl)imidazo[2,1-f][1,6]naphthyridin-9-yl)-1H-pyrazol-1-yl)-2-methylpropan-2-ol]
[1]
  pIC50: 8.30 to 9.00
[2]; Homo sapiens, RT112/84, 72 h
  pIC50: 7.30 to 8.00

## C[C@H](CO)n1cc(-c2cnc3ccn4c(CO)c(-c5c(Cl)cccc5Cl)nc4c3c2)cn1 [Example 24, (R)-2-(4-(2-(2,6-Dichlorophenyl)-3-(hydroxymethyl)imidazo[2,1-f][1,6]naphthyridin-9-yl)-1H-pyrazol-1-yl)propan-1-ol]
[1]
  pIC50: 8.30 to 9.00
[2]; Homo sapiens, RT112/84, 72 h
  pIC50: 7.30 to 8.00

## OCc1c(-c2c(Cl)cccc2Cl)nc2c3cc(-c4cnn(CC5(F)CCOCC5)c4)cnc3ccn12 [Example 25, (2-(2,6-Dichlorophenyl)-9-(1-((4-fluorotetrahydro-2H-pyran-4-yl)methyl)-1H-pyrazol-4-yl)imidazo[2,1-J][1,6]naphthyridin-3-yl)methanol]
[1]
  pIC50: > 9.00
[2]; Homo sapiens, RT112/84, 72 h
  pIC50: > 8.00
